Among the test systems are HL-60; SNB-75; MOLT-4; K562; Hs-578T; MDA-MB-435; OVCAR-8; HCT-116; KM12; A549; OVCAR-4; MCF7; SF-295; LOX IMVI; EKVX; CCRF-CEM; SW-620; RXF 393; OVCAR-5; UO-31; 786-0; HOP-92; IGROV-1; NCI-H226; HT-29; SF-268; Malme-3M; SNB-19; SF-539; UACC-62; M14; SK-MEL-28; COLO 205; DU-145; HCT-15; MDA-MB-231; SK-OV-3; NCI-H23; HCC 2998; TK-10; SN12C; T47D; HOP-62; U-251; SR; RPMI-8226; NCI/ADR-RES; UACC-257; SK-MEL-5.

What all share (assay): NCI anticancer screen, dose series, 48 h

The values below come from ChEMBL document CHEMBL1201862, “PubChem BioAssay data set” (2004).

Molecules are shown by their SMILES.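 Tested at 5 concentrations; 48 h exposure; 96-well plates; endpoints linearly interpolated, else capped at highest concentration. Abbreviation: GI50, concentration required for 50% inhibition of growth.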 The source made the active and inactive calls. No stated cut-off is given here; in the data, active = GI50 up to about 1.1 µM and inactive = higher.

`CN(C)CCSC1=Nc2ccc(Cl)cc2C(c2ccccc2Cl)=NC1`: the GI50 with HL-60 is 19.3 µM (inactive); in the assay with SNB-75, 18.2 µM (inactive); with MOLT-4 it was 33.3 µM (inactive); in the assay on K562, 20.5 µM (inactive); in the assay with Hs-578T it was 18.6 µM (inactive); with MDA-MB-435 it was 13.8 µM (inactive).
With `CC(Cc1ccccc1)N(C)Cc1nc(C2CCC([N+](=O)[O-])O2)no1` (configuration not stated), the GI50 in the assay with OVCAR-8 was 12.7 µM (inactive); with HCT-116, 7.29 µM (inactive); with KM12, 4.55 µM (inactive); with A549 it was 12.1 µM (inactive); in the assay on OVCAR-4 it was 8.47 µM (inactive); in the assay on MCF7, 4.06 µM (inactive). Further, the GI50 in the assay with SF-295 was 8.79 µM (inactive); in the assay with LOX IMVI, 3.19 µM (inactive); with HL-60 it was 6.49 µM (inactive); in the assay on EKVX it was 28.4 µM (inactive); with CCRF-CEM, 12.2 µM (inactive); with SW-620, 3.1 µM (inactive). In addition, the GI50 with RXF 393 was 19 µM (inactive); in the assay on OVCAR-5, 15.6 µM (inactive); in the assay with UO-31, 7.29 µM (inactive); in the assay on 786-0, 11.9 µM (inactive); with HOP-92 it was 21.3 µM (inactive); in the assay with IGROV-1 it was 8.55 µM (inactive). In addition, the GI50 is 10.3 µM (inactive) with SNB-75; 19.5 µM (inactive) in the assay with MOLT-4; 16.9 µM (inactive) in the assay with NCI-H226; 2.77 µM (inactive) in the assay with HT-29; 28.1 µM (inactive) in the assay on SF-268; 11.9 µM (inactive) in the assay with Malme-3M. The GI50 with SNB-19 is 12.2 µM (inactive); in the assay on SF-539, 3.32 µM (inactive); with UACC-62, 5.96 µM (inactive); with M14, 6 µM (inactive); in the assay with SK-MEL-28, 11.9 µM (inactive); in the assay with COLO 205, 3.72 µM (inactive). Also, the GI50 in the assay on DU-145 was 12.4 µM (inactive); in the assay with HCT-15 it was 2.17 µM; in the assay on MDA-MB-231, 2.47 µM (inactive); in the assay on SK-OV-3 it was 24.5 µM (inactive); in the assay on NCI-H23 it was 5.18 µM (inactive); in the assay with HCC 2998, 4.17 µM (inactive). Besides, the GI50 was 13.5 µM (inactive) in the assay with TK-10; 2.51 µM (inactive) with SN12C; 19.1 µM (inactive) with T47D; 7.43 µM (inactive) with HOP-62; 10.2 µM (inactive) in the assay with U-251; 16.7 µM (inactive) in the assay with SR. The GI50 in the assay with RPMI-8226 is 14.8 µM (inactive); with NCI/ADR-RES, 11.9 µM (inactive); in the assay with Hs-578T it was 2.46 µM (inactive); in the assay with MDA-MB-435 it was 6.82 µM (inactive); in the assay with UACC-257 it was 7.31 µM (inactive); in the assay with SK-MEL-5 it was 11.5 µM (inactive).
`O=C1C=CC2(C=C1)CCNC1=C2C(=O)c2[nH]cnc2C1=O`: the results for the GI50 with IGROV-1, in the assay on Malme-3M and in the assay with SNB-19 were 15.2 µM (inactive), 2.26 µM (inactive) and 13.9 µM (inactive), respectively.
